In patent US11649502B2, “Exosomal microRNA in serum as an indicator for the activation of brown and beige fat tissue (BAT)” (RHEINISCHE FRIEDRICH-WILHELMS-UNIVERSITÄT BONN, priority 2015, dated 2023):

Experiments:
C57BL/6J wild type mice = assay: qPCR of exosomal miRNAs in mouse serum after BAT activation; assay type: in vivo
Procedure: Cold exposure was performed by housing 12 week old male mice at 4° C. for 7 days. The β3-adrenergic agonist CL-316,243 (#1499, Tocris, Wiesbaden, GER, 0.2 mg/mL in 0.9 W/V % NaCl) was administered by subcutaneous injection (1 μg per g body weight) for 7 days. Control-treated C57BL/6J mice received vehicle injections (0.9% NaCl) correspondingly. Blood collections were performed after 4 hours of fasting.

UCP-1 [1] = assay: UCP-1 expression after NE treatment in primary murine white adipocytes; assay type: cell-based, mouse; settings: primary murine white adipocytes treated with NE
UCP-1 [2] = assay: UCP-1 expression after NE treatment in 3T3-L1 cells; assay type: cell-based; settings: 3T3-L1 cells after NE treatment
From the text: The supernatant was withdrawn and used for exosome isolation.

[3] = serum of mice with active BAT (CL-316,243 or cold)

C[C@H](Cc1ccc2c(c1)OC(C(=O)[O-])(C(=O)[O-])O2)NC[C@H](O)c1cccc(Cl)c1.[Na+].[Na+] [CL]
miR-133a in serum-derived exosomes (C57BL/6J wild type mice; CL-treated mice, 1 μg per g body weight s.c. for 7 days): down-regulated
miR-34c* in serum exosomes (qPCR) (C57BL/6J wild type mice; [3]): significantly up-
miR-92a in serum exosomes (qPCR) (C57BL/6J wild type mice; [3]): down-regulated

NC[C@H](O)c1ccc(O)c(O)c1 [NE, norepinephrine]
UCP-1 expression (UCP-1 [1]): significant increase
UCP-1 expression (UCP-1 [2]): did not significantly increase
